From patent publication US20120283175A1, “ANTIBACTERIAL COMPOSITIONS” (Achaogen, Inc., priority 2009, published 2012)
Values after ≈ are worked out from the molar mass of the structure shown. Values joined by “and” are separate entries in the source; they are usually repeats but may differ in a detail not shown here. Equal entries are not always repeated. Where two headings read alike, the source gives them in different places.

Experiments:
K. pneumo. (ATCC43816) = assay: Neutropenic thigh in vivo efficacy model (mice); parameters: species or system Klebsiella pneumoniae; Static Dose, LpxC cmpd / Static Dose, LpxC in combination: unit not given here; conditions: for Static Dose, LpxC cmpd: LpxC compound alone; for Static Dose, LpxC in combination: combination agent Vanco (440 mg/kg/day)
Source text: (§1) The model was run essentially as described by Craig and others (see Gudmundsson et al., “Murine Thigh Infection Model,” Handbook of Animal Models of Infection, M. A. Sande and O. Zak, Eds.; London: Academic Press, 1999, pp 137-144). Briefly, mice were rendered neutropenic prior to infection with 2 doses of cyclophosphamide, and then infected intramuscularly in the thigh with inocula of 10^3-10^5 CFU of either K. pneumo. (ATCC43816) or P. aeruginosa (ATCC27853). Antibiotics or vehicle alone as a negative control were administered twice at 2 hrs and 14 hrs post-infection. The animals were kept neutropenic for the duration of the experiment in order to minimize the effect of white blood cells on the infection such that the microbiological readout measures the in vivo interaction of drugs and bacteria. At 24 hrs post-infection, thighs were harvested, homogenized, and plated to measure the number of CFUs surviving per thigh. Thighs from a subset of animals were also harvested 2 hrs post-infection to record the CFUs present just prior to the first antibiotic treatment (pre-treatment).

gram negative bacteria = assay: Checkerboard synergy score at fractions of the antibacterial agent's MIC, with LpxCi-1, -2, -3; assay type: cell-based; parameters: scale not given here
Description: Partial or full inhibition of LpxC should compromise the outer membrane and thus allow these synergizing agents to enter the cells and exert an antibacterial effect at concentrations where cells untreated with an LpxC inhibitor are unaffected. As a first step, checkerboard synergy assays for a variety of antibacterial agents were perform with several LpxC inhibitors, on several species of gram negative bacteria.
(§2) Bacterial isolates were cultivated from −70° C. frozen stocks of the indicated strains by overnight passages at 35° C. in ambient air on Mueller-Hinton agar (Beckton Dickinson, Franklin Lakes, N.J.). Minimum Inhibitory Concentrations (MICs) were determined by the broth microdilution method in accordance with the Clinical and Laboratory Standards Institute (CLSI) guidelines. In brief, organism suspensions were adjusted to a 0.5 McFarland standard to yield a final inoculum between 3×10^5 and 7×10^5 colony-forming units (CFU)/mL. Drug dilutions and inocula were made in sterile, cation adjusted Mueller-Hinton Broth (Beckton Dickinson). An inoculum volume of 100 μL was added to wells containing 100 μL of broth with 2-fold serial dilutions of drug. All inoculated microdilution trays were incubated in ambient air at 35° C. for 18-24 hours. Following incubation, the lowest concentration of the drug that prevented visible growth (OD600 nm <0.05) was recorded as the MIC.

[1] = tested on: P. aeruginosa (ATCC27853)
Source text: as §1
This table focuses on the sensitive part of the LpxCi-4 dose response curve (30 mg/kg) by examining the mean log CFU at 0 or 24 hours, as well as the log change in CFU at 24 hours relative to zero hours (“ΔLogCFU vs […]”). Data is given for animals treated with vehicle, LpxCi-4 at 30 mg/kg, a second agent alone at the indicated doses or the combination of LpxCi-4 at 30 mg/kg plus the second agent at the indicated dose. The standard errors for each measurement are also given (n=5 animals/group). By comparing the observed drop in CFU of the combination with the sum of the drop in CFU associated with each of the two agents given separately, one can determine whether the combination is, in fact, synergistic in vivo.

[2] = tested on: Klebsiella pneumoniae (ATCC 43816); assay type: in vivo; conditions: for Mean CFU/g thigh muscle (SEM): normal plates; for Mean CFU/g thigh muscle (SEM) / CFU/Drug Plate - Dilution 10^0 / CFU/Drug Plate - Dilution 10^−1: Vancomycin 25 mg/kg, LpxC-i 35 mg/kg; for CFU/Drug Plate - Dilution 10^0 / CFU/Drug Plate - Dilution 10^−1: per animal N 1-5; on CFU/Drug Plate - Dilution 10^0: key: +: Too many colonies to permit accurate counting
Description: Vancomycin and LpxCi-5 were dissolved in 30% HPβCD (2-hydroxypropyl-β-cyclodextrin). Test substances were each administered subcutaneously (SC) singly or in combination to test animals at 2 hours and 14 hours after bacterial inoculation then bid daily for a total of 1, 2, 3 or 7 day(s). The dosing volume was 5 mL/kg.
Groups of 5 or 10 male specific-pathogen-free CD-1 (Crl.) mice weighing 24±2 g were used. Animals were immunosuppressed by two or three intraperitoneal injections of cyclophosphamide, the first at 150 mg/kg 4 days before infection (day −4) and the second or third at 100 mg/kg 1 day before or 3 days after infection (day −1 or +3). On day 0, animals were inoculated intramuscularly (0.1 mL/thigh) into the right thigh with a specific number (1.35×10^7 CFU/mouse) of Klebsiella pneumoniae (ATCC 43816). Vehicle and test substances (singly or in combination) were each administered subcutaneously 2 hours and 14 hours after inoculation then bid for a total of 1, 2, 3 or 7 consecutive day(s). Groups at 24, 48, 72 hours and day 8 hours after treatment as the designated time of harvest, muscle of the right thigh was harvested from each of the survival test animals. An additional group with no treatment, at 2 hours after inoculation, the muscle of the right thigh was harvested and viable CFU on agar plates with or without drug were quantified by standard methods. Animals in groups designated for Day 8 harvest are 10 mice and daily tally of survivors were kept until harvest and recorded. A non-infected group was just treated with LpxCi-5 and kept out to Day 8 and then harvested. The removed muscle tissues were then homogenized in 3˜4 mL of PBS, pH 7.4, with a ceramic mortar. Homogenates of 0.1 mL were used for serial 10-fold dilutions and plated on Muller-Hinton Broth in 1.5% Bacto agar and plated in parallel with drug plates for CFU determination. The original inoculum was adjusted to 2×10^8 CFU/0.1 mL and then plated onto the 3 different drug plates of LpxCi-5 for CFU count.
The immunity of animals treated with vehicle or vancomycin alone was suppressed by two intraperitoneal injections of cyclophosphamide, the first was at 150 mg/kg 4 days before infection (day −4) and the second was at 100 mg/kg 1 day before infection (day −1). On day 0, test compound and vehicle were each administered subcutaneously at 2 and 14 hrs after animals were inoculated intramuscularly (0.1 mL/thigh) with 1.35×10^7 CFU/mouse of Klebsiella pneumoniae (ATCC 43816).
(§3) The immunity of animals treated with LpxCi-5 alone was suppressed by two or three intraperitoneal injections of cyclophosphamide, the first was at 150 mg/kg 4 days before infection (day −4); the second and the third was at 100 mg/kg 1 day before and three days after infection (day −1 and day +3). On day 0, test compound were each administered subcutaneously bid at 2 and 14 hrs after animals were inoculated intramuscularly (0.1 mL/thigh) with 1.35×10^7 CFU/mouse of Klebsiella pneumoniae (ATCC 43816) for one, two, three or seven consecutive days. At 24, 48, 72 hours or at day 8 after treatment, muscle of the right thigh was harvested from each of the test animals for CFU determination in normal and drug plates.
as §3, with “both vancomycin and the LpxC inhibitor, LpxCi-5,” for “LpxCi-5 alone”, “compounds in combination” for “compound”, “days.” for “days. At 24, 48, 72 hours or at day 8 after treatment, muscle of the right thigh was harvested from each of the test animals for CFU determination in normal and drug plates.”

envA1 (D22) E. coli = assay: MIC by broth microdilution, isogenic envA1 mutant strain; assay type: cell-based; conditions: Strain envA1 (D21)
Description: as §2

[3] = with LpxCi-3, antibacterial agent at 1/16 MIC
[4] = with LpxCi-3, antibacterial agent at 1/64 MIC
[5] = with LpxCi-3, antibacterial agent at ¼ MIC
[6] = strain 27853, combination agent Vanco

SMILES: C[C@@H](O)[C@H](NC(=O)c1ccc(C#Cc2ccc(CN3CCOCC3)cc2)cc1)C(=O)NO [LpxCi-3, N-((2S,3R)-3-hydroxy-1-(hydroxyamino)-1-oxobutan-2-yl)-4-((4-(morpholinomethyl)phenyl)ethynyl)benzamide]
- in vivo synergy with vancomycin (K. pneumo. (ATCC43816); bacterial strain ATCC43816): in vivo synergy
- Static Dose, LpxC cmpd (K. pneumo. (ATCC43816); strain 43816): >1000
- Static Dose, LpxC in combination (K. pneumo. (ATCC43816); strain 43816): 107

SMILES: C[C@@H](O)[C@H]1C(=O)N2C(C(=O)O)=C(SCCN=CN)C[C@H]12 [Imipenem, imipenem]
- Synergy Score (gram negative bacteria; with LpxCi-1, antibacterial agent at 1/16 MIC): 0.40
- Synergy Score (gram negative bacteria; with LpxCi-1, antibacterial agent at 1/64 MIC): .035
- Synergy Score (gram negative bacteria; with LpxCi-1, antibacterial agent at ¼ MIC): 0.58
- Synergy Score (gram negative bacteria; with LpxCi-2, antibacterial agent at 1/16 MIC): 1.06
- Synergy Score (gram negative bacteria; with LpxCi-2, antibacterial agent at 1/64 MIC): 1.02
- Synergy Score (gram negative bacteria; with LpxCi-2, antibacterial agent at ¼ MIC): 1.25
- Synergy Score (gram negative bacteria; [3]): 0.17
- Synergy Score (gram negative bacteria; [4]): 0.13
- Synergy Score (gram negative bacteria; [5]): 0.36

SMILES: O=C(O)c1cn(C2CC2)c2cc(N3CCNCC3)c(F)cc2c1=O [Ciprofloxacin]
- Synergy Score (gram negative bacteria; [3]): 1.06
- Synergy Score (gram negative bacteria; [4]): 1.02
- Synergy Score (gram negative bacteria; [5]): 1.25

SMILES: CC(C)(O)[C@H](NC(=O)c1ccc(C#CC#CC2CC2)cc1)C(=O)NO [LpxCi-6, (S)-4-(cyclopropylbuta-1,3-diynyl)-N-(3-hydroxy-1-(hydroxyamino)-3-methyl-1-oxobutan-2-yl)benzamide]
- in vivo synergy with vancomycin ([1]; bacterial strain ATCC27853): in vivo synergy
- Static Dose, LpxC cmpd ([1]; strain 27853, LpxC compound alone): 269
- Fold Shift Static Dose [1, 6]: 1.8x
- Static Dose, LpxC in combination [1, 6]: 151
- Static Dose, LpxC cmpd (K. pneumo. (ATCC43816); strain 43816): 240
- Fold Shift Static Dose (K. pneumo. (ATCC43816); strain 43816, combination agent Vanco): 3x
- Static Dose, LpxC in combination (K. pneumo. (ATCC43816); strain 43816): 80

SMILES: CC(C)(N)[C@H](NC(=O)c1ccc(C#C/C=C/C2CC2)cc1)C(=O)NO [LpxCi-5, (S,E)-N-(3-amino-1-(hydroxyamino)-3-methyl-1-oxobutan-2-yl)-4-(4-cyclopropylbut-3-en-1-ynyl)benzamide]
- Mean CFU/g thigh muscle (SEM) ([2]; 24 hr, SC bid × 1): 3.81 × 10^7 CFU/g
- CFU/Drug Plate - Dilution 10^0 ([2]; 24 hr, SC bid × 1): +
- CFU/Drug Plate - Dilution 10^−1 ([2]; 24 hr, SC bid × 1): 780 CFU/Drug Plate and + (4×)
- Mean CFU/g thigh muscle (SEM) ([2]; 48 hr, SC bid × 2): 3.80 × 10^8 CFU/g
- CFU/Drug Plate - Dilution 10^0 ([2]; 48 hr, SC bid × 2): +
- CFU/Drug Plate - Dilution 10^−1 ([2]; 48 hr, SC bid × 2): +
- Mean CFU/g thigh muscle (SEM) ([2]; 72 hr, SC bid × 3): 1.48 × 10^9 CFU/g
- CFU/Drug Plate - Dilution 10^0 ([2]; 72 hr, SC bid × 3): +
- CFU/Drug Plate - Dilution 10^−1 ([2]; 72 hr, SC bid × 3): +
- Mean CFU/g thigh muscle (SEM) ([2]; Day 8, SC bid × 7): all animals died
- protection of the animals ([2]; LpxCi-5 at 35 mg/kg bid (70 mg/kg/day)): provides protection to the animals out to 72 hours
- resistant CFU present at 24, 48 and 72 hours ([2]; LpxCi-5 at 35 mg/kg bid alone): > 10^3 CFU/thigh
- total burden of CFU by 72 hours ([2]; LpxCi-5 at 35 mg/kg bid alone): > 10^9 CFU/thigh
- in vivo synergy and suppression of emergence of resistant mutants ([2]; LpxCi-5 with Vancomycin): synergistic with Vancomycin in vivo
- survival to Day 8 ([2]; bid for seven consecutive days): All animals were dead by Day 8

SMILES: Cc1onc(-c2ccccc2)c1C(=O)N[C@@H]1C(=O)N2[C@@H]1SC(C)(C)[C@@H]2C(=O)O [Oxacillin, oxacillin]
- MIC (envA1 (D22) E. coli): 16 µg/mL (≈ 39.9 µM)
- ΔLogCFU vs 24 hr ([1]; 24 hr, second block of Table 5, mg/kg/day b.i.d.: 3936 30, Eryth. 60, Dapto. 3, Oxacil. 100): −0.35
- Log CFU Mean ([1]; 24 hr, second block of Table 5, mg/kg/day b.i.d.: 3936 30, Eryth. 60, Dapto. 3, Oxacil. 100, n=5): 7.29
- in vivo synergy with LpxC inhibitors ([1]; P. aeruginosa (ATCC27853), summary): modest but potentially useful in vivo synergy
